Data published in BigSolDB 2.1.

CCOc1nc2cccc(C(=O)OC(C)OC(=O)OC3CCCCC3)c2n1Cc1ccc(-c2ccccc2-c2nn[nH]n2)cc1 (stereo not given)
solubility (mole fraction)
Conditions	in 2-butanone	in acetone	in acetonitrile	in ethanol	in isopropanol	in n-propanol
278.15 K	0.00575	0.00383	0.00026	0.00055	0.00026	0.00062
283.15 K	0.00653	0.00467	0.00033	0.00066	0.00037	0.00079
288.15 K	0.00749	0.00566	0.00044	0.00086	0.00052	0.00098
293.15 K	0.0086	0.00673	0.00058	0.00103	0.0007	0.00132
298.15 K	0.01	0.00783	0.00071	0.0013	0.00093	0.00172
303.15 K	0.0118	0.00946	0.00091	0.00163	0.00128	0.00208
308.15 K	0.0138	0.0111	0.00127	0.00203	0.0017	0.00283
313.15 K	0.016	0.0133	0.00159	0.00271	0.00221	0.00373
318.15 K	0.019	0.0155	0.00195	0.00355	0.00298	0.00452
323.15 K	0.0224	0.0182	0.00263	0.00458	0.00391	0.0059
328.15 K	0.0264	–	0.00343	0.00573	0.00526	0.00759
333.15 K	0.031	–	0.00442	0.00772	0.00667	0.00977
